Test: Cytotoxicity against chicken HD11 cells assessed as cell viability after 24 hrs by MTS assay
Format: ADME, cell-based
Conditions: Gallus gallus, HD11, 24 h

SMILES | IC50
C=C1C(=O)O[C@H]2C[C@H](C)[C@@H]3CC[C@@]4(C)O[C@@]34C[C@H]12 | > 30 µM
C=C1C[C@H](O)C[C@]2(C)C[C@H]3OC(=O)[C@@H](C)[C@H]3C[C@@H]12 | > 30 µM
C=C1C(=O)O[C@@H]2/C=C(\C)CC[C@H]3O[C@]3(COC(C)=O)C[C@@H](OC(=O)C3(C)OC3C)[C@@H]12 (stereo partly drawn) | 25.5 µM
C=C1C(=O)O[C@@H]2/C=C(/C)[C@@H](OC(C)=O)C[C@H]3O[C@]3(O)C[C@@H](OC(=O)/C(C)=C\C)[C@@H]12 | > 30 µM
C=C1C(=O)O[C@@H]2/C=C(/CO)C[C@H](O)/C=C(/C(=O)OC)[C@@H](OC(C)=O)[C@@H](OC(=O)C(C)C)[C@@H]12 | 24.8 µM
C=C1C(=O)O[C@H]2[C@H]1[C@H](OC(=O)[C@]1(C)O[C@@H]1C)[C@@H](OC(C)=O)/C(C(=O)OC)=C\C=C/[C@@]1(C)O[C@H]21 | 28 µM
C=C1C(=O)O[C@@H]2/C=C(\C)CC/C=C(/C(=O)OC)[C@H](OC(C)=O)[C@@H](OC(=O)C(C)(O)C(C)O)[C@@H]12 (stereo partly drawn) | > 30 µM
C=C1C[C@H]2OC(=O)C(=C)[C@@H]2[C@H](OC(=O)C(C)C)C[C@@]2(C)OC1=CC2=O | 25.2 µM
C=C(C)C(=O)O[C@@H]1C[C@@]2(C)OC(=CC2=O)C(=C)C[C@H]2OC(=O)C(=C)[C@H]12 | 10.4 µM
C=C1C[C@H]2OC(=O)C(=C)[C@@H]2[C@H](OC(=O)/C(C)=C/C)C[C@@]2(C)OC1=CC2=O | 12.1 µM
C=C1C(=O)O[C@@H]2C[C@H](C)C(/C=C/C(C)=O)=CC[C@H]12 | > 30 µM
C=C1C(=O)O[C@@H]2C[C@H](C)[C@]3(/C=C/C(C)=O)O[C@@H]3C[C@H]12 | > 30 µM
C=C1C(=O)O[C@@H]2C[C@H](C)[C@@]3(O)C=C(C(C)=O)[C@@]4(O[C@@H]3C[C@H]12)C(=O)O[C@H]1C[C@@H](C)C(/C=C/C(C)=O)=CC[C@H]14 | > 30 µM
C=C1C(=O)O[C@@H]2C[C@H](C)[C@@]3(O)C=C(C(C)=O)[C@@]4(O[C@@H]3C[C@H]12)C(=O)O[C@H]1C[C@@H](C)[C@]2(/C=C/C(C)=O)O[C@@H]2C[C@H]14 | > 30 µM
C=C1C(=O)O[C@@H]2[C@H]3O[C@]3(C)CC/C=C(\C)[C@@H](OC(=O)CC3(C)OC3C)C[C@@H]12 (stereo partly drawn) | 22.2 µM
C=C1C(=O)O[C@H]2[C@H]1[C@H](OC(C)=O)C/C(C)=C/CC[C@@]1(C)O[C@@H]21 | > 30 µM
C=C1C(=O)O[C@@H]2/C=C(\C)CC[C@H]3O[C@]3(CO)C[C@@H](OC(=O)C3(C)OC3C)[C@@H]12 (stereo partly drawn) | > 30 µM
C=C1C(=O)O[C@@H]2C[C@@H](C)[C@@H]3[C@@H](OC(C)=O)C[C@@H](OC(C)=O)[C@@]3(C)[C@@H](OC(C)=O)[C@H]12 | > 30 µM
C=C1C(=O)O[C@@H]2C[C@@H](C)[C@@H]3[C@@H](OC(C)=O)C[C@@H](OC(C)=O)[C@@]3(C)C[C@H]12 | > 30 µM
C=C1C(=O)O[C@@H]2C[C@@H](C)[C@@H]3[C@@H](OC(C)=O)C[C@@H](O)[C@@]3(OC(C)=O)C[C@H]12 | > 30 µM

SMILES | IC50
C=C1C(=O)O[C@@H]2C[C@@H](C)[C@@H]3CCC(=O)[C@@]3(C)C[C@H]12 | > 30 µM
C=C1C(=O)O[C@@H]2C[C@@H](C)[C@@H]3[C@@H](OC(C)=O)C[C@@H](O)[C@@]3(C)C[C@H]12 | > 30 µM
CC(=O)O[C@H]1[C@@H]2[C@H](C)C(=O)O[C@@H]2C[C@@H](C)[C@@H]2C=CC(=O)[C@]21C | 21 µM
C=C1C(=O)O[C@@H]2C3O[C@]3(C)CC/C=C(\C)CC[C@@H]12 (stereo partly drawn) | > 30 µM
CC(C)CC(=O)O[C@H]1[C@@H]2[C@H](C)C(=O)O[C@@H]2C[C@@H](C)[C@@H]2C=CC(=O)[C@]21C | > 30 µM
C=C1C(=O)O[C@@H]2C[C@@H](C)[C@@H]3[C@@H](O)C[C@@H](OC(=O)/C(C)=C/C)[C@@]3(C)[C@@H](O)[C@H]12 | > 30 µM
C=C1C(=O)O[C@@H]2[C@H]3O[C@]3(C)CC/C=C(\C)[C@@H](OC(=O)C(C)C(C)O)C[C@@H]12 (stereo partly drawn) | > 30 µM
C=C1C(=O)O[C@@H]2[C@H]3O[C@]3(C)CC/C=C(\C)[C@@H](OC(=O)CC(C)(C)O)C[C@@H]12 | > 30 µM
C=C1C(=O)O[C@@H]2C[C@@H](C)[C@@H]3[C@@H](O)C[C@@H](O)[C@@]3(C)C[C@H]12 | > 30 µM
C=C1C(=O)O[C@@H]2C[C@@]3(C)CC(=O)C[C@H](C)C3=C[C@H]12 [2-OXOALANTOLACTONE] | > 30 µM
C/C1=C\CC[C@@]2(C)O[C@@H]2[C@H]2OC(=O)[C@@H](C)[C@@H]2CC1 [11BETA,13-DIHYDRO-PARTHENOLIDE] | > 30 µM
C=C1C(=O)O[C@@H]2C[C@@H](C)[C@@H]3C=CC(=O)[C@@]3(C)[C@@H](OC(C)=O)[C@H]12 [ANGUSTIBALIN] | 7.34 µM
C=C1C(=O)O[C@@H]2[C@H]3C(C)=CC[C@@]34O[C@@]4(C)CC[C@@H]12 [ARGLABIN] | > 30 µM
C=C1C(=O)O[C@@H]2C[C@@H](C)C(=O)C/C=C(\C)CC[C@@H]12 [ARGOLIDE] | > 30 µM
C=C1C(=O)O[C@@H]2C[C@@H](C)[C@@H]3[C@@H](O)CC(=O)[C@@]3(C)[C@@H](OC(=O)/C(C)=C/C)[C@H]12 [ARNIFOLIN] | > 30 µM
C=C1C(=O)O[C@@H]2/C=C(/CO)C3=CC(=O)[C@@](C)(C[C@@H](OC(=O)/C(C)=C/C)[C@@H]12)O3 [BUDLEIN A] | 9 µM
C=C1C(=O)O[C@@H]2C[C@]3(C)[C@@H](CCC(C)=O)[C@]3(C)C[C@H]12 [CARABRONE] | > 30 µM
C=C1C(=O)O[C@@H]2C[C@@H](C)[C@@H]3[C@@H](OC(C)=O)C[C@@H](O)[C@@]3(C)[C@@H](O)[C@H]12 [CHAMISSONOLIDE] | > 30 µM
C=C1C(=O)O[C@@H]2/C=C(\CO)CC/C=C(\C)C[C@H](OC(=O)C(=C)[C@H](O)CO)[C@@H]12 [CNICIN] | > 30 µM
C=C1C(=O)O[C@@H]2/C=C(\C)CC/C=C(\C)CC[C@@H]12 [COSTUNOLIDE] | > 30 µM

SMILES | IC50
C=C1CC[C@H]2C(=C)CC[C@H]3C(=C)C(=O)O[C@@H]3[C@@H]12 [DEHYDROCOSTUSLACTONE] | > 30 µM
C=C1C(=O)O[C@@H]2[C@H]3C(C)=CC[C@H](O)[C@]3(C)CC[C@@H]12 [DOUGLANIN] | > 30 µM
C=C1C(=O)O[C@H]2[C@H]1[C@H](OC(=O)[C@@]1(C)O[C@H]1C)[C@@H](OC(C)=O)/C(C(=O)OC)=C\CC[C@@]1(C)O[C@H]21 [ENHYDRIN] | 7.49 µM
C=C1C(=O)O[C@@H]2/C=C(/C)[C@@H](O)C[C@H]3O[C@]3(C)C[C@@H](OC(=O)/C(C)=C\C)[C@@H]12 [EPOXYNOBILIN] | > 30 µM
C=C(C)C(=O)O[C@H]1C[C@@]2(C)OC(=CC2=O)/C(CO)=C\[C@H]2OC(=O)C(=C)[C@H]12 [GOIAZENSOLIDE] | 10.1 µM
C=C1C(=O)O[C@@H]2C[C@@H](C)[C@@H]3C=CC(=O)[C@@]3(C)[C@@H](OC(=O)C(C)C)[C@H]12 [HELENALINISOBUTYRATE] | > 30 µM
C=C1C(=O)O[C@@H]2C[C@@H](C)[C@@H]3C=CC(=O)[C@@]3(C)[C@@H](O)[C@H]12 [HELENALIN] | 21.1 µM
C=C1C(=O)O[C@@H]2C[C@@]3(C)CCC[C@H](C)C3=C[C@H]12 [HELENINE] | > 30 µM
C=C1C(=O)O[C@@H]2C[C@@]3(C)CCCC(=C)[C@@H]3C[C@H]12 [ISOALANTOLACTONE] | > 30 µM
C=C1C(=O)O[C@@H]2C[C@@]3(C)C[C@@H](O)CC(=C)[C@@H]3C[C@H]12 [IVALIN] | > 30 µM
C=C1C(=O)O[C@H]2C[C@@H](C)[C@@H]3C=CC(=O)[C@@]3(C)[C@H](O)[C@H]12 [MEXICANIN I] | 21.1 µM
C=C1C(=O)O[C@@H]2/C=C(/C)[C@@H](O)C/C=C(\C)C[C@H](OC(=O)/C(C)=C\C)[C@@H]12 [NOBILIN] | > 30 µM
C=C(CO)C(=O)O[C@H]1C/C(C)=C\CC/C(CO)=C\[C@H]2OC(=O)C(=C)[C@H]12 [ONOPORDOPICRIN] | > 30 µM
C=C1C(=O)O[C@@H]2C[C@H](C)[C@]3(O)CCC(=O)[C@@]3(C)C[C@H]12 [PERUVIN] | > 30 µM
C=C1C(=O)O[C@@H]2[C@H]1CC[C@H](C)[C@]1(CCC(=O)O1)[C@@]2(C)O [PSILOSTACHYIN A] | > 30 µM
C=C1C(=O)O[C@@H]2/C=C(/C)[C@@H](O)C[C@H]3O[C@]3(COC(C)=O)C[C@@H](OC(=O)/C(C)=C\C)[C@@H]12 [ROTUNDIN] | > 30 µM
C=C1C(=O)O[C@@H]2/C=C(/C)C(=O)/C=C/[C@](C)(O)C[C@@H](OC(=O)C(C)C)[C@@H]12 [TAGITININ C] | 30.9 µM
C=C1C(=O)O[C@@H]2/C=C(\C)CC/C=C(/C(=O)OC)[C@H](OC(C)=O)[C@@H](OC(=O)[C@]3(C)O[C@@H]3C)[C@@H]12 [UVEDALIN] | 11.4 µM

— ChEMBL document CHEMBL2380234, “Natural sesquiterpene lactones as inhibitors of Myb-dependent gene expression: structure-activity relationships” (Eur J Med Chem, 2013)
